Series [1] has as its system hepatocytes from male rats (Sprague Dawley). As to the kind of experiment: In vitro metabolism study in rat hepatocytes in suspension, GC-MS. The note with it: for Benzoic acid derivative concentration / Residual conc.: male, Sprague-Dawley, rat, 4 h, 100 μM. The protocol:
In order to study in vitro metabolism in rat hepatocytes, Lilial™ and compounds of the present invention may be incubated in the presence of rat hepatocytes in suspension. Reduction in the concentration of Lilial™ and the compounds of the present invention and formation of any of the corresponding benzoic acid derivatives may be analysed by GC-MS.
Cryopreserved hepatocytes from male rats (Sprague Dawley; Lifetechnologies) were defrozen, washed in Cyropreserved Hepatocytes Recovery Medium (CHRM; Lifetechnologies) and suspended in Williams E Medium (WEM; Lifetechnologies). Lilial™, or the compounds of the present invention (final concentration: 100 μM) were added to the cells (1×10^6 viable cells/ml) and suspensions were incubated up to 4 hours at 37° C. on a shaker in duplicate. Metabolism of testosterone was monitored as positive control. Decrease of the test compounds and formation of the corresponding benzoic acid derivative was determined by GC-MS analysis of methyl esters formed after derivatisation with trimethylsilyl diazomethane (Sigma-Aldrich) in methanol. The test compounds react with diazomethane yielding a methyl ketone which was used for the quantification of Lilial™ and the compound of formula (I). Metabolism was stopped with ice cold 1 M HCl, samples were extracted with tert-butyl methyl ether (MTBE) and analysed by GC-MS. Incubations containing testosterone as control were also stopped with ice cold 1 M HCl, centrifuged to separate the cells, filtrated and the decrease of testosterone analysed by LC-MS. To quantify decrease of the test substances and formation of benzoic acid metabolites, calibration curves of reference materials Lilial™ and the compounds of the present invention, tert-butyl benzoic acid (Fluka) was prepared in hepatocyte incubation medium and analysed like the hepatocyte samples.

Series [2] can be described thus: Formation of the corresponding esters with Coenzym A. Conditions: further experiment. It is filed as in vitro ADME.
A further series concerns mice. Conditions: cited from earlier work.
The test system of a further series is guinea-pigs. The note with it: cited from earlier work.
A further series concerns primates. The note with it: cited from earlier work.
A further series relates to male rats. The note with it: Hunter et al. 1965, Cagen et al. 1989; cited from earlier work.
The next series relates to glucose synthesis. The note with it: in vitro; McCune et al 1982; cited from earlier work.
In a further series the test system is fatty acid synthesis. Conditions: in vitro; McCune et al 1982; cited from earlier work.

Like-named read-outs stand apart in the source and are kept apart here.

In the case of `CC(C)c1ccc(CCCC=O)cc1`, in series [1], the “Benzoic acid derivative concentration” value was 1.4 µM and the Residual conc. was determined as 0 µM.
Regarding `CC(C)(C)c1ccc(CCCC=O)cc1`, in series [1], the “Benzoic acid derivative concentration” value was determined as 1.3 µM and the Residual conc. stood at 0.7 µM.
As for `CC(C)Cc1ccc(CCCC=O)cc1`, in series [1], the “Benzoic acid derivative concentration” value was found to be 0.5 µM and the Residual conc. came out at 0.2 µM.
For `Cc1cc(CC(C)C)ccc1CCCC=O` [Example 3, 4-(4-Isobutyl-2-methylphenyl)butanal], the “Formation of the corresponding esters with Coenzym A” value in series [2] is “does not provide the formation of the corresponding esters with Coenzym A”.
`CC(C=O)Cc1ccc(C(C)(C)C)cc1` (stereo not shown) [Lilial™, 3-(4-tert-butylphenyl)-2-methylpropanal]: the “Decrease of the test compound (in words)” value in series [1] is “metabolised rapidly”. Besides, in series [1], the Residual conc. was 0 µM. The Effects in studies result in the series with mice, in the series with guinea-pigs and in the series with primates was “No effects” in each case.
Consider `CC(C)(C)c1ccc(C(=O)O)cc1` [tert-Butyl benzoic acid, tert-butyl benzoic acid], for which the Testicular effects entry with male rats is “testicular effects”. In addition, the “Inhibition of glucose synthesis” value in the series on glucose synthesis is given as “inhibit”. The “Inhibition of fatty acid synthesis” value in the series on fatty acid synthesis is given as “inhibit”.
On to `C[C@]12CC[C@H]3[C@@H](CCC4=CC(=O)CC[C@@]43C)[C@@H]1CC[C@@H]2O` [testosterone], for which the “Decrease of the test compound (in words)” value in series [1] (rat hepatocytes, up to 4 hours at 37° C.) is on record as “rapid decrease”.

Values taken from patent US20180230399A1, “ORGANIC COMPOUNDS” (GIVAUDAN SA, priority 2014, published 2018).
